Square brackets hold non-standard residues; d marks the D form. Peptide text beside a SMILES is read from it. * marks the point of attachment. X6 = CC(=O)N(C(=O)[C@H](C)N)[C@H](C(=O)*)C(C)C; X7 = C[C@H](/C=C(\Cl)[C@H](C)N)C(=O)*; X5 = C[C@H](/C=C(\F)[C@H](C)N)C(=O)*; X4 = CC(=O)N(CC(=O)*)C(=O)[C@H](C)N; NMeV = CN[C@H](C(=O)O)C(C)C; N(iPr)Gly = CC(C)NCC(=O)O; NMeA = CN[C@@H](C)C(=O)O
Experiments:
[1] = system: OK-1; test: Accumulation of cyclic AMP in OK-1 cells.; assay type: functional, cell-based, opossum; conditions: opossum, OK-1
[2] = system: OK-1; test: Compound was evaluated for the intrinsic activity for accumulation of cyclic AMP in OK-1 cells.; assay type: functional, opossum
[3] = system: OK-1; test: Displacement of [125I]-chick PTHrP-(1-36)-NH2 from opossum (OK-1) kidney cells; assay type: functional
[4] = system: UMR106-06; test: Compound was evaluated for the intrinsic activity for accumulation of cyclic AMP in UMR10606 (rat osteosarcoma) cells.; assay type: functional
[5] = system: UMR106-06; test: Compound was evaluated for the accumulation of cyclic AMP in UMR10606 (rat osteosarcoma) cells.; assay type: functional, cell-based; conditions: Rattus norvegicus, UMR106-06

SMILES | EC50 [1] [nM] | Intrinsic activity [2] | pKD [3] | Intrinsic activity [4] | EC50 [5] [nM]
CC[C@H](C)[C@H](NC(=O)[C@H](CCC(=O)O)NC(=O)[C@H](CO)NC(=O)CN(C(=O)[C@H](C)N)C(C)C)C(=O)N[C@@H](CCC(N)=O)C(=O)N[C@@H](CC(C)C)C(=O)N[C@@H](CCSC)C(=O)N[C@@H](Cc1c[nH]cn1)C(=O)N[C@@H](CC(N)=O)C(=O)N[C@@H](CC(C)C)C(=O)NCC(=O)N[C@@H](CCCCN)C(=O)N[C@@H](Cc1c[nH]cn1)C(=O)N[C@@H](CC(C)C)C(=O)N[C@@H](CC(N)=O)C(=O)N[C@@H](CO)C(=O)N[C@@H](CCSC)C(=O)N[C@@H](CCC(=O)O)C(=O)N[C@@H](CCCN=C(N)N)C(=O)N[C@H](C(=O)N[C@@H](CCC(=O)O)C(=O)N[C@@H](Cc1c[nH]c2ccccc12)C(=O)N[C@@H](CC(C)C)C(=O)N[C@@H](CCCN=C(N)N)C(=O)N[C@@H](CCCCN)C(=O)N[C@@H](CCCCN)C(=O)N[C@@H](CC(C)C)C(=O)N[C@@H](CCC(N)=O)C(=O)N[C@@H](CC(=O)O)C(=O)N[C@H](C(=O)N[C@@H](Cc1c[nH]cn1)C(=O)N[C@@H](CC(N)=O)C(=O)N[C@@H](Cc1ccccc1)C(=O)N[C@H](C(=O)N[C@@H](C)C(N)=O)C(C)C)C(C)C)C(C)C (H-A[N(iPr)Gly]SEIQLMHNLGKHLNSMERVEWLRKKLQDVHNFVA-NH2) | 97.2 | 0.5 | 7.4 | 0.05 | 30
CC[C@H](C)[C@H](NC(=O)[C@H](CCC(=O)O)NC(=O)[C@H](CO)NC(=O)[C@H](C(C)C)N(C)C(=O)[C@H](C)N)C(=O)N[C@@H](CCC(N)=O)C(=O)N[C@@H](CC(C)C)C(=O)N[C@@H](CCSC)C(=O)N[C@@H](Cc1c[nH]cn1)C(=O)N[C@@H](CC(N)=O)C(=O)N[C@@H](CC(C)C)C(=O)NCC(=O)N[C@@H](CCCCN)C(=O)N[C@@H](Cc1c[nH]cn1)C(=O)N[C@@H](CC(C)C)C(=O)N[C@@H](CC(N)=O)C(=O)N[C@@H](CO)C(=O)N[C@@H](CCSC)C(=O)N[C@@H](CCC(=O)O)C(=O)N[C@@H](CCCN=C(N)N)C(=O)N[C@H](C(=O)N[C@@H](CCC(=O)O)C(=O)N[C@@H](Cc1c[nH]c2ccccc12)C(=O)N[C@@H](CC(C)C)C(=O)N[C@@H](CCCN=C(N)N)C(=O)N[C@@H](CCCCN)C(=O)N[C@@H](CCCCN)C(=O)N[C@@H](CC(C)C)C(=O)N[C@@H](CCC(N)=O)C(=O)N[C@@H](CC(=O)O)C(=O)N[C@H](C(=O)N[C@@H](Cc1c[nH]cn1)C(=O)N[C@@H](CC(N)=O)C(=O)N[C@@H](Cc1ccccc1)C(=O)N[C@H](C(=O)N[C@@H](C)C(N)=O)C(C)C)C(C)C)C(C)C (H-A[NMeV]SEIQLMHNLGKHLNSMERVEWLRKKLQDVHNFVA-NH2) | 3.5 | 1 | 8.4 | 0.9 | 4.4
CC[C@H](C)[C@H](NC(=O)[C@H](CCC(=O)O)NC(=O)[C@H](CO)NC(=O)[C@H](C(C)C)N(C)C(=O)[C@H](C)NC)C(=O)N[C@@H](CCC(N)=O)C(=O)N[C@@H](CC(C)C)C(=O)N[C@@H](CCSC)C(=O)N[C@@H](Cc1c[nH]cn1)C(=O)N[C@@H](CC(N)=O)C(=O)N[C@@H](CC(C)C)C(=O)NCC(=O)N[C@@H](CCCCN)C(=O)N[C@@H](Cc1c[nH]cn1)C(=O)N[C@@H](CC(C)C)C(=O)N[C@@H](CC(N)=O)C(=O)N[C@@H](CO)C(=O)N[C@@H](CCSC)C(=O)N[C@@H](CCC(=O)O)C(=O)N[C@@H](CCCN=C(N)N)C(=O)N[C@H](C(=O)N[C@@H](CCC(=O)O)C(=O)N[C@@H](Cc1c[nH]c2ccccc12)C(=O)N[C@@H](CC(C)C)C(=O)N[C@@H](CCCN=C(N)N)C(=O)N[C@@H](CCCCN)C(=O)N[C@@H](CCCCN)C(=O)N[C@@H](CC(C)C)C(=O)N[C@@H](CCC(N)=O)C(=O)N[C@@H](CC(=O)O)C(=O)N[C@H](C(=O)N[C@@H](Cc1c[nH]cn1)C(=O)N[C@@H](CC(N)=O)C(=O)N[C@@H](Cc1ccccc1)C(=O)N[C@H](C(=O)N[C@@H](C)C(N)=O)C(C)C)C(C)C)C(C)C (H-[NMeA][NMeV]SEIQLMHNLGKHLNSMERVEWLRKKLQDVHNFVA-NH2) | 6.5 | 1 | 8.5 | 1 | 4.9
CC[C@H](C)[C@H](NC(=O)[C@H](CCC(=O)O)NC(=O)[C@H](CO)NC(=O)CN(C(C)=O)C(=O)[C@H](C)N)C(=O)N[C@@H](CCC(N)=O)C(=O)N[C@@H](CC(C)C)C(=O)N[C@@H](CCSC)C(=O)N[C@@H](Cc1c[nH]cn1)C(=O)N[C@@H](CC(N)=O)C(=O)N[C@@H](CC(C)C)C(=O)NCC(=O)N[C@@H](CCCCN)C(=O)N[C@@H](Cc1c[nH]cn1)C(=O)N[C@@H](CC(C)C)C(=O)N[C@@H](CC(N)=O)C(=O)N[C@@H](CO)C(=O)N[C@@H](CCSC)C(=O)N[C@@H](CCC(=O)O)C(=O)N[C@@H](CCCN=C(N)N)C(=O)N[C@H](C(=O)N[C@@H](CCC(=O)O)C(=O)N[C@@H](Cc1c[nH]c2ccccc12)C(=O)N[C@@H](CC(C)C)C(=O)N[C@@H](CCCN=C(N)N)C(=O)N[C@@H](CCCCN)C(=O)N[C@@H](CCCCN)C(=O)N[C@@H](CC(C)C)C(=O)N[C@@H](CCC(N)=O)C(=O)N[C@@H](CC(=O)O)C(=O)N[C@H](C(=O)N[C@@H](Cc1c[nH]cn1)C(=O)N[C@@H](CC(N)=O)C(=O)N[C@@H](Cc1ccccc1)C(=O)N[C@H](C(=O)N[C@@H](C)C(N)=O)C(C)C)C(C)C)C(C)C (X4-SEIQLMHNLGKHLNSMERVEWLRKKLQDVHNFVA-NH2) | 117 | 0.2 | 7.1 | 0.8 | 958
CC[C@H](C)[C@H](NC(=O)[C@H](CCC(=O)O)NC(=O)[C@H](CO)NC(=O)[C@H](C)/C=C(\F)[C@H](C)N)C(=O)N[C@@H](CCC(N)=O)C(=O)N[C@@H](CC(C)C)C(=O)N[C@@H](CCSC)C(=O)N[C@@H](Cc1c[nH]cn1)C(=O)N[C@@H](CC(N)=O)C(=O)N[C@@H](CC(C)C)C(=O)NCC(=O)N[C@@H](CCCCN)C(=O)N[C@@H](Cc1c[nH]cn1)C(=O)N[C@@H](CC(C)C)C(=O)N[C@@H](CC(N)=O)C(=O)N[C@@H](CO)C(=O)N[C@@H](CCSC)C(=O)N[C@@H](CCC(=O)O)C(=O)N[C@@H](CCCN=C(N)N)C(=O)N[C@H](C(=O)N[C@@H](CCC(=O)O)C(=O)N[C@@H](Cc1c[nH]c2ccccc12)C(=O)N[C@@H](CC(C)C)C(=O)N[C@@H](CCCN=C(N)N)C(=O)N[C@@H](CCCCN)C(=O)N[C@@H](CCCCN)C(=O)N[C@@H](CC(C)C)C(=O)N[C@@H](CCC(N)=O)C(=O)N[C@@H](CC(=O)O)C(=O)N[C@H](C(=O)N[C@@H](Cc1c[nH]cn1)C(=O)N[C@@H](CC(N)=O)C(=O)N[C@@H](Cc1ccccc1)C(=O)N[C@H](C(=O)N[C@@H](C)C(N)=O)C(C)C)C(C)C)C(C)C (X5-SEIQLMHNLGKHLNSMERVEWLRKKLQDVHNFVA-NH2) | 9.1 | 0.6 | 8.2 | 0.95 | 13
CC[C@H](C)[C@H](NC(=O)[C@H](CCC(=O)O)NC(=O)[C@H](CO)NC(=O)[C@H](C(C)C)N(C(C)=O)C(=O)[C@H](C)N)C(=O)N[C@@H](CCC(N)=O)C(=O)N[C@@H](CC(C)C)C(=O)N[C@@H](CCSC)C(=O)N[C@@H](Cc1c[nH]cn1)C(=O)N[C@@H](CC(N)=O)C(=O)N[C@@H](CC(C)C)C(=O)NCC(=O)N[C@@H](CCCCN)C(=O)N[C@@H](Cc1c[nH]cn1)C(=O)N[C@@H](CC(C)C)C(=O)N[C@@H](CC(N)=O)C(=O)N[C@@H](CO)C(=O)N[C@@H](CCSC)C(=O)N[C@@H](CCC(=O)O)C(=O)N[C@@H](CCCN=C(N)N)C(=O)N[C@H](C(=O)N[C@@H](CCC(=O)O)C(=O)N[C@@H](Cc1c[nH]c2ccccc12)C(=O)N[C@@H](CC(C)C)C(=O)N[C@@H](CCCN=C(N)N)C(=O)N[C@@H](CCCCN)C(=O)N[C@@H](CCCCN)C(=O)N[C@@H](CC(C)C)C(=O)N[C@@H](CCC(N)=O)C(=O)N[C@@H](CC(=O)O)C(=O)N[C@H](C(=O)N[C@@H](Cc1c[nH]cn1)C(=O)N[C@@H](CC(N)=O)C(=O)N[C@@H](Cc1ccccc1)C(=O)N[C@H](C(=O)N[C@@H](C)C(N)=O)C(C)C)C(C)C)C(C)C (X6-SEIQLMHNLGKHLNSMERVEWLRKKLQDVHNFVA-NH2) | 9.9 | 0.8 | 7.9 | 1 | 15
CC[C@H](C)[C@H](NC(=O)[C@H](CCC(=O)O)NC(=O)[C@H](CO)NC(=O)[C@H](C)/C=C(\Cl)[C@H](C)N)C(=O)N[C@@H](CCC(N)=O)C(=O)N[C@@H](CC(C)C)C(=O)N[C@@H](CCSC)C(=O)N[C@@H](Cc1c[nH]cn1)C(=O)N[C@@H](CC(N)=O)C(=O)N[C@@H](CC(C)C)C(=O)NCC(=O)N[C@@H](CCCCN)C(=O)N[C@@H](Cc1c[nH]cn1)C(=O)N[C@@H](CC(C)C)C(=O)N[C@@H](CC(N)=O)C(=O)N[C@@H](CO)C(=O)N[C@@H](CCSC)C(=O)N[C@@H](CCC(=O)O)C(=O)N[C@@H](CCCN=C(N)N)C(=O)N[C@H](C(=O)N[C@@H](CCC(=O)O)C(=O)N[C@@H](Cc1c[nH]c2ccccc12)C(=O)N[C@@H](CC(C)C)C(=O)N[C@@H](CCCN=C(N)N)C(=O)N[C@@H](CCCCN)C(=O)N[C@@H](CCCCN)C(=O)N[C@@H](CC(C)C)C(=O)N[C@@H](CCC(N)=O)C(=O)N[C@@H](CC(=O)O)C(=O)N[C@H](C(=O)N[C@@H](Cc1c[nH]cn1)C(=O)N[C@@H](CC(N)=O)C(=O)N[C@@H](Cc1ccccc1)C(=O)N[C@H](C(=O)N[C@@H](C)C(N)=O)C(C)C)C(C)C)C(C)C (X7-SEIQLMHNLGKHLNSMERVEWLRKKLQDVHNFVA-NH2) | 5.5 | 1 | 8.9 | 1 | 5

Source: ChEMBL document CHEMBL1159136, “Dipeptide mimetics can substitute for the receptor activation domain resulting in highly potent analogues of hPTH(136)” (Bioorg Med Chem Lett, 1996)
